Source: BindingDB's records for doi:10.1021/jm00001a008 (R. W. Johnson Pharmaceutical Research Institute, 1995)
Structures can show the parent of a compound that is named as a salt.

Key:
[1] = target: T1, Integrin alpha-IIb/beta-3 (Homo sapiens, UniProt P08514+P05106); assay: Inhibition of arachidonic acid-induced platelet aggregation
[2] = target: T1, Integrin alpha-IIb/beta-3; assay: Inhibition of collagen-induced platelet aggregation
[3] = target: T1, Integrin alpha-IIb/beta-3; assay: Inhibition of thrombin-induced platelet aggregation at 50 uM

T1 sequence (P05106 27-788 limits assumed): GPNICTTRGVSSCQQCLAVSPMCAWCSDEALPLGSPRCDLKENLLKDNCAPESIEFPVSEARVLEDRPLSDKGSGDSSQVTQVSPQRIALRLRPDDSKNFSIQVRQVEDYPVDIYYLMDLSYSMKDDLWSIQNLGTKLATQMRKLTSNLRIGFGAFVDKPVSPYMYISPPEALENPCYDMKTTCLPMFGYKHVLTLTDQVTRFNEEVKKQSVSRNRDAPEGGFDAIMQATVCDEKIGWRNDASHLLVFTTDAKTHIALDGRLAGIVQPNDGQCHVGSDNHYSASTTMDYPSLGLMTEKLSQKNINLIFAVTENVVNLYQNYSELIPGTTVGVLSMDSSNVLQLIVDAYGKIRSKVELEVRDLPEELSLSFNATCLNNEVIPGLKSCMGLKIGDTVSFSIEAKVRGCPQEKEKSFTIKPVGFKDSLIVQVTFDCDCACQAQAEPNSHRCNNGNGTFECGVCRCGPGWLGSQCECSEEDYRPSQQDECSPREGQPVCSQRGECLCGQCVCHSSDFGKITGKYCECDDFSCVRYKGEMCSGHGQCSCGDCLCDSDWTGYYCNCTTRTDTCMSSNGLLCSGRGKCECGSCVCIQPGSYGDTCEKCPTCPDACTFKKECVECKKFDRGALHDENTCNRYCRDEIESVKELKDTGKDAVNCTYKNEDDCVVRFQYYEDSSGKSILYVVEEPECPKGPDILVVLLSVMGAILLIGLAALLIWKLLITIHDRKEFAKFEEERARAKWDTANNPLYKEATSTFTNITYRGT
T1 sequence (P08514 32-887 limits assumed): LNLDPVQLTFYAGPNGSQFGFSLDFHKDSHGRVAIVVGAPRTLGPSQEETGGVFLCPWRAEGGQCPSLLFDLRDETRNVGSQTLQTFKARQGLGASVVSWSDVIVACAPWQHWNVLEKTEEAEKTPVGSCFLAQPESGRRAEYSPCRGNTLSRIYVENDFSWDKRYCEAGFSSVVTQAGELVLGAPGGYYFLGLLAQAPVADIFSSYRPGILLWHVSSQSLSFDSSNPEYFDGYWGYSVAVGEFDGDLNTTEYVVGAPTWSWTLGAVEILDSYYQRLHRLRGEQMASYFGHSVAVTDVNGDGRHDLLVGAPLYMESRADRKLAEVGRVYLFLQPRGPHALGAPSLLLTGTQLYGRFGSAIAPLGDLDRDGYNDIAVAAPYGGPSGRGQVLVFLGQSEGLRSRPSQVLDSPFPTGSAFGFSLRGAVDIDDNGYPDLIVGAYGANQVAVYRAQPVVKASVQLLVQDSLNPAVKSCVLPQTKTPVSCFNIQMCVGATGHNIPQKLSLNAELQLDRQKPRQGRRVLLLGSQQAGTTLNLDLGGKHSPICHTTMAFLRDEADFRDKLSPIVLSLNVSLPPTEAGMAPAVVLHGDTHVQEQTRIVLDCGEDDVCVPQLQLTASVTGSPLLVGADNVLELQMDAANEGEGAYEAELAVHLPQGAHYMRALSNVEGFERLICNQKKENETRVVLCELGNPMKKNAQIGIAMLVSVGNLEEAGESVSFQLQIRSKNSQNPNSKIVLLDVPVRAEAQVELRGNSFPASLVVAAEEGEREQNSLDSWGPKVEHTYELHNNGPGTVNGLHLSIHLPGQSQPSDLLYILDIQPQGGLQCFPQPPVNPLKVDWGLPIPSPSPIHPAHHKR
T1 sequence (P08514 891-1039 limits assumed): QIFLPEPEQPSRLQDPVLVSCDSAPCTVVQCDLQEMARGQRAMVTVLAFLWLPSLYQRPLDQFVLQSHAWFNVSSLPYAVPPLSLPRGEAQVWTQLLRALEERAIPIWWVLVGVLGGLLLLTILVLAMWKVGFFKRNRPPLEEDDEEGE

Compound | IC50 [1] [µM] | IC50 [2] [µM] | IC50 [3] [µM]
CCN(CC)CCCNC(=O)c1cnn(-c2nc(-c3cccc(C(F)(F)F)c3)cs2)c1C(F)(F)F [5-Trifluoromethyl-1-[4-(3-trifluoromethyl-phenyl)-thiazol-2-yl]-1H-pyrazole-4-carboxylic acid (3-diethylamino-propyl)-amide] | 0.4 | 2.5 | 
CCN(CC)CCCNC(=O)c1cnn(-c2nc(-c3cccc(C(F)(F)F)c3)c(Br)s2)c1C(F)(F)F [1-[5-Bromo-4-(3-trifluoromethyl-phenyl)-thiazol-2-yl]-5-trifluoromethyl-1H-pyrazole-4-carboxylic acid (3-diethylamino-propyl)-amide] | 2.1 | 3.5 | 
CCCNCCCNC(=O)c1cnn(-c2nc(-c3cccc(C(F)(F)F)c3)cs2)c1C(F)(F)F [5-Trifluoromethyl-1-[4-(3-trifluoromethyl-phenyl)-thiazol-2-yl]-1H-pyrazole-4-carboxylic acid (3-propylamino-propyl)-amide] | 4.1 | 3.5 | 
COc1ccc(CCNC(=O)C(CC(=O)O)NC(=O)CCCCCCCNC(=N)N)cc1 (stereo unspecified) [SC-47643] | 2.4 |  | 
NCCNC(=O)c1cnn(-c2nc(-c3cccc(C(F)(F)F)c3)cs2)c1C(F)(F)F [5-Trifluoromethyl-1-[4-(3-trifluoromethyl-phenyl)-thiazol-2-yl]-1H-pyrazole-4-carboxylic acid (2-amino-ethyl)-amide; hydrochloride] |  |  | 11.2
CC(=O)Oc1ccccc1C(=O)O [2-(acetyloxy)benzoic acid] | 5 | > 100 | 

Continued, values first:

IC50 [1] [µM] | IC50 [2] [µM] | IC50 [3] [µM] | Compound
12 | 3 |  | O=C(NCCCN1CCCCC1)c1cnn(-c2nc(-c3cccc(C(F)(F)F)c3)cs2)c1C(F)(F)F [5-Trifluoromethyl-1-[4-(3-trifluoromethyl-phenyl)-thiazol-2-yl]-1H-pyrazole-4-carboxylic acid (3-piperidin-1-yl-propyl)-amide]
3.7 | 3 |  | NCCCNC(=O)c1cnn(-c2nc(-c3cccc(C(F)(F)F)c3)cs2)c1C(F)(F)F [5-Trifluoromethyl-1-[4-(3-trifluoromethyl-phenyl)-thiazol-2-yl]-1H-pyrazole-4-carboxylic acid (3-amino-propyl)-amide; hydrochloride]
4.5 | 0.1 |  | NCCCCNC(=O)c1cnn(-c2nc(-c3cccc(C(F)(F)F)c3)cs2)c1C(F)(F)F [5-Trifluoromethyl-1-[4-(3-trifluoromethyl-phenyl)-thiazol-2-yl]-1H-pyrazole-4-carboxylic acid (4-amino-butyl)-amide; hydrochloride]
